Results from US8431556B2, “C-21-keto lupane derivatives preparation and use thereof” (Vertex Pharmaceuticals Incorporated, priority 2008, dated 2013).

Test system: HIV-1 (HIVIIIB)
Assay: HIV-1 replication in MT2 cell line with and without 30% human serum (viral RT activity in supernatant)
Type: cell-based
Conditions: Human immunodeficiency virus 1, MT2, MT-2 cells, with 30% human serum, average IC50 if tested more than once, read-out: MT-2 (HIVIIIB) with 30% HS IC50 range
Summary of the method: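 MT2 cells infected with HIVIIIB at MOI 0.5 for 3 h, washed, then cultured with serially diluted compound in RPMI/10% FBS, with or without 30% human serum, at 37° C. Compound-containing medium refreshed at day 3. Replication measured as supernatant RT activity at day 5; IC50 and IC90 from curve fits.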

SMILES | IC50
CC(C)C1=C2C3CCC4[C@@]5(C)CC[C@H](OC(=O)CC(C)(C)C(=O)O)C(C)(C)C5CC[C@@]4(C)[C@]3(C)CC[C@@]2(C(=O)Nc2ncc3ccccc3n2)CC1=O (stereo partly drawn) [9-89, 3β-O-(3′,3′-Dimethylsuccinyl)-21-oxolup-18-en-28-oic acid N-quinazolin-2-yl acetamide] | < 199 nM
CC(=O)NC1CCN(C(=O)[C@@]23CC[C@]4(C)[C@H](CC[C@@H]5[C@@]6(C)CC[C@H](OC(=O)CC(C)(C)C(=O)O)C(C)(C)[C@@H]6CC[C@]54C)C2=C(C(C)C)C(=O)C3)CC1 [9-43, 3β-O-(3′,3′-Dimethylsuccinyl)-21-oxolup-18-en-28-oic acid N-(4-acetylamino-1-piperidine)-acetamide] | < 199 nM
CC(C)C1=C2[C@H]3CC[C@@H]4[C@@]5(C)CC[C@H](OC(=O)CC(C)(C)C(=O)O)C(C)(C)[C@@H]5CC[C@@]4(C)[C@]3(C)CC[C@@]2(C(=O)Nc2ccnn2C)CC1=O [9-54, 3β-O-(3′,3′-Dimethylsuccinyl)-21-oxolup-18-en-28-oic acid N-5-amino-1-methyl-1H-pyrazole acetamide] | < 199 nM
CCOC(=O)NC1CCN(C(=O)[C@@]23CC[C@]4(C)[C@H](CC[C@@H]5[C@@]6(C)CC[C@H](OC(=O)CC(C)(C)C(=O)O)C(C)(C)[C@@H]6CC[C@]54C)C2=C(C(C)C)C(=O)C3)CC1 [9-67, 3β-O-(3′,3′-Dimethylsuccinyl)-21-oxolup-18-en-28-oic acid N-(4-aminocarboxylic acid ethyl ester-1-piperidine)-acetamide] | < 199 nM
Cc1nnc(NC(=O)[C@@]23CC[C@]4(C)[C@H](CC[C@@H]5[C@@]6(C)CC[C@H](OC(=O)CC(C)(C)C(=O)O)C(C)(C)[C@@H]6CC[C@]54C)C2=C(C(C)C)C(=O)C3)o1 [9-62, 3β-O-(3′,3′-Dimethylsuccinyl)-21-oxolup-18-en-28-oic acid N-(5-methyl-[1,3,4]oxadiazol-2-yl)-acetamide] | 200 to 999 nM
CC(C)C1=C2[C@H]3CC[C@@H]4[C@@]5(C)CC[C@H](OC(=O)CC(C)(C)C(=O)O)C(C)(C)[C@@H]5CC[C@@]4(C)[C@]3(C)CC[C@@]2(C(=O)NCc2ccccn2)CC1=O [9-16, 3β-O-(3′,3′-Dimethylsuccinyl)-21-oxolup-18-en-28-oic acid N-pyridin-2-ylmethylamide] | < 199 nM
CC(C)NC(=O)NC1CCN(C(=O)[C@@]23CC[C@]4(C)[C@H](CC[C@@H]5[C@@]6(C)CC[C@H](OC(=O)CC(C)(C)C(=O)O)C(C)(C)[C@@H]6CC[C@]54C)C2=C(C(C)C)C(=O)C3)CC1 [9-44, 3β-O-(3′,3′-Dimethylsuccinyl)-21-oxolup-18-en-28-oic acid N-[(4-amino-N′-isopropylureido)-1-piperidine]-acetamide] | < 199 nM
CC(C)C1=C2[C@H]3CC[C@@H]4[C@@]5(C)CC[C@H](OC(=O)CC(C)(C)C(=O)O)C(C)(C)[C@@H]5CC[C@@]4(C)[C@]3(C)CC[C@@]2(C(=O)NCCNC(=O)OC(C)(C)C)CC1=O [9-20, 3β-O-(3′,3′-Dimethylsuccinyl)-21-oxolup-18-en-28-oic acid N-(2-acetylamino-ethyl)-carbamic acid tert-butyl ester] | < 199 nM
CC(C)C1=C2[C@H]3CC[C@@H]4[C@@]5(C)CC[C@H](OC(=O)CC(C)(C)C(=O)O)C(C)(C)[C@@H]5CC[C@@]4(C)[C@]3(C)CC[C@@]2(C(=O)Nc2nccc(C(F)(F)F)n2)CC1=O [9-72, 3β-O-(3′,3′-Dimethylsuccinyl)-21-oxolup-18-en-28-oic acid N-4-trifluoro-pyrimidin-2-yl-acetamide] | < 199 nM
CC(C)C1=C2[C@H]3CC[C@@H]4[C@@]5(C)CC[C@H](OC(=O)CC(C)(C)C(=O)O)C(C)(C)[C@@H]5CC[C@@]4(C)[C@]3(C)CC[C@@]2(C(=O)N2CCC2)CC1=O [9-70, 3β-O-(3′,3′-Dimethylsuccinyl)-21-oxolup-18-en-28-oic acid N-azetidine-1 acetamide] | < 199 nM
CC(C)C1=C2[C@H]3CC[C@@H]4[C@@]5(C)CC[C@H](OC(=O)CC(C)(C)C(=O)O)C(C)(C)[C@@H]5CC[C@@]4(C)[C@]3(C)CC[C@@]2(C(=O)NC(C)C(F)(F)F)CC1=O (stereo partly drawn) [9-75, 3β-O-(3′,3′-Dimethylsuccinyl)-21-oxolup-18-en-28-oic acid N-(2,2,2-trifluoro-1-methyl-ethyl)-acetamide] | < 199 nM
CC(C)C1=C2[C@H]3CC[C@@H]4[C@@]5(C)CC[C@H](OC(=O)CC(C)(C)C(=O)O)C(C)(C)[C@@H]5CC[C@@]4(C)[C@]3(C)CC[C@@]2(C(=O)N(C)Cc2ccccc2)CC1=O [9-11, 3β-O-(3′,3′-Dimethylsuccinyl)-21-oxolup-18-en-28-oic acid N-methyl-N-benzylamide] | < 199 nM
CC(C)C1=C2[C@H]3CC[C@@H]4[C@@]5(C)CC[C@H](OC(=O)CC(C)(C)C(=O)O)C(C)(C)[C@@H]5CC[C@@]4(C)[C@]3(C)CC[C@@]2(C(=O)Nc2ncccn2)CC1=O [9-38, 3β-O-(3′,3′-Dimethylsuccinyl)-21-oxolup-18-en-28-oic acid N-pyrimidin-2-yl-acetamide] | < 199 nM
CC(=O)N1CCN(C(=O)[C@@]23CC[C@]4(C)[C@H](CC[C@@H]5[C@@]6(C)CC[C@H](OC(=O)CC(C)(C)C(=O)O)C(C)(C)[C@@H]6CC[C@]54C)C2=C(C(C)C)C(=O)C3)CC1 [9-8, 3β-O-(3′,3′-Dimethylsuccinyl)-21-oxolup-18-en-28-oic acid N-(4-acetylpiperazinyl) acetamide] | < 199 nM
CC(C)C1=C2[C@H]3CC[C@@H]4[C@@]5(C)CC[C@H](OC(=O)CC(C)(C)C(=O)O)C(C)(C)[C@@H]5CC[C@@]4(C)[C@]3(C)CC[C@@]2(C(=O)NC2CCC(F)(F)CC2)CC1=O [9-85, 3β-O-(3′,3′-Dimethylsuccinyl)-21-oxolup-18-en-28-oic acid N-(4,4-difluoro-cyclohexyl) acetamide] | < 199 nM
CC(C)C1=C2[C@H]3CC[C@@H]4[C@@]5(C)CC[C@H](OC(=O)CC(C)(C)C(=O)O)C(C)(C)[C@@H]5CC[C@@]4(C)[C@]3(C)CC[C@@]2(C(=O)Nc2cnccn2)CC1=O [9-59, 3β-O-(3′,3′-Dimethylsuccinyl)-21-oxolup-18-en-28-oic acid N-pyrazin-2-yl-acetamide] | < 199 nM
CC(C)C1=C2[C@H]3CC[C@@H]4[C@@]5(C)CC[C@H](OC(=O)CC(C)(C)C(=O)O)C(C)(C)[C@@H]5CC[C@@]4(C)[C@]3(C)CC[C@@]2(C(=O)N2C3CCC2CN(C(=O)c2ccccc2)C3)CC1=O [9-36, 3β-O-(3′,3′-Dimethylsuccinyl)-21-oxolup-18-en-28-oic acid N-(8-amino-3,8-diaza-bicyclo[3.2.1]octane-3-benzamide)-acetamide] | < 199 nM
CC(C)C1=C2[C@H]3CC[C@@H]4[C@@]5(C)CC[C@H](OC(=O)CC(C)(C)C(=O)O)C(C)(C)[C@@H]5CC[C@@]4(C)[C@]3(C)CC[C@@]2(C(=O)N2C3CCC2CN(C(=O)OC(C)(C)C)C3)CC1=O [9-50, 3β-O-(3′,3′-Dimethylsuccinyl)-21-oxolup-18-en-28-oic acid N-8-acetylamino-3,8-diaza-bicyclo[3.2.1]octane-3-carboxylic acid tert-butyl ester] | < 199 nM
CC(C)C1=C2[C@H]3CC[C@@H]4[C@@]5(C)CC[C@H](OC(=O)CC(C)(C)C(=O)O)C(C)(C)[C@@H]5CC[C@@]4(C)[C@]3(C)CC[C@@]2(C(=O)N2CCC(NC(=O)OC(C)(C)C)CC2)CC1=O [9-41, 3β-O-(3′,3′-Dimethylsuccinyl)-21-oxolup-18-en-28-oic acid N-(4-aminocarboxylic acid tert-butyl-ester-1-piperidine)-acetamide] | < 199 nM
CC(C)C1=C2[C@H]3CC[C@@H]4[C@@]5(C)CC[C@H](OC(=O)CC(C)(C)C(=O)O)C(C)(C)[C@@H]5CC[C@@]4(C)[C@]3(C)CC[C@@]2(C(=O)NCc2cccnc2)CC1=O [9-17, 3β-O-(3′,3′-Dimethylsuccinyl)-21-oxolup-18-en-28-oic acid N-pyridin-3-ylmethylamide] | < 199 nM
Cc1nnc(NC(=O)[C@@]23CC[C@]4(C)[C@H](CC[C@@H]5[C@@]6(C)CC[C@H](OC(=O)CC(C)(C)C(=O)O)C(C)(C)[C@@H]6CC[C@]54C)C2=C(C(C)C)C(=O)C3)s1 [9-76, 3β-O-(3′,3′-Dimethylsuccinyl)-21-oxolup-18-en-28-oic acid N-(5-methyl-[1,3,4]thiadiazol-2-yl)-acetamide] | < 199 nM

Same assay, conditions: Human immunodeficiency virus 1, MT2, MT-2 cells, without HS, average IC50 if tested more than once, read-out: MT-2 (HIVIIIB) IC50 range

SMILES | IC50
CC(C)C1=C2[C@H]3CC[C@@H]4[C@@]5(C)CC[C@H](OC(=O)CC(C)(C)C(=O)O)C(C)(C)[C@@H]5CC[C@@]4(C)[C@]3(C)CC[C@@]2(C(=O)NC2CCCCC2)CC1=O [9-4, 3β-O-(3′,3′-Dimethylsuccinyl)-21-oxolup-18-en-28-oic acid N-cyclohexylamide] | < 199 nM
CC(C)C1=C2[C@H]3CC[C@@H]4[C@@]5(C)CC[C@H](OC(=O)CC(C)(C)C(=O)O)C(C)(C)[C@@H]5CC[C@@]4(C)[C@]3(C)CC[C@@]2(C(=O)NCC2CCCCC2)CC1=O [9-5, 3β-O-(3′,3′-Dimethylsuccinyl)-21-oxolup-18-en-28-oic acid N-cyclohexyl methylamide] | < 199 nM
CC(C)C1=C2[C@H]3CC[C@@H]4[C@@]5(C)CC[C@H](OC(=O)CC(C)(C)C(=O)O)C(C)(C)[C@@H]5CC[C@@]4(C)[C@]3(C)CC[C@@]2(C(=O)NCc2cccc(Cl)c2)CC1=O [9-13, 3β-O-(3′,3′-Dimethylsuccinyl)-21-oxolup-18-en-28-oic acid N-3-chloro-benzylamide] | < 199 nM
CC(C)C1=C2[C@H]3CC[C@@H]4[C@@]5(C)CC[C@H](OC(=O)CC(C)(C)C(=O)O)C(C)(C)[C@@H]5CC[C@@]4(C)[C@]3(C)CC[C@@]2(C(=O)NCc2ccccc2)CC1=O [9-1, 3β-O-(3′,3′-Dimethylsuccinyl)-21-oxolup-18-en-28-oic acid N-benzylamide] | < 199 nM
